Patent US4409228A, “Andrexiant aminopiperidines intermediates thereto and drugs containing same” (Sanofi, priority 1979, dated 1983)
Where a name gives a salt, the structure may show the parent alone. Read-outs that look alike come from different tables or passages of the source.

Tests used:
Type in all cases: in vivo
[1] = Acute toxicity, LD50 in the rat by the oral route; conditions: in vivo; for selectivity ratio: ratio acute toxicity LD50 / anorexiant ED50 (therapeutic index), read-out: A/B
Excerpt: (§1) the acute toxicity, expressed at LD50 in the rat by the oral route (data A);

[2] = Anorexiant activity, food consumption method in the rat, oral (ED50); conditions: for ED50: read-out: B anorexiant activity ED50; for anorexiant activity (in words): oral
Protocol: (§2) The anorexiant activity was assessed by the food consumption method in the rat. Female rats weighing 200 g were used, trained for 10 days to eat during a period of 4 hours and selected on the eighth day. After the tenth day, the randomized animals were divided into a "control group", treated solely with the carrier, and into several "treated groups". The treatment was effected by the intraperitoneal route 30 minutes before the presentation of food and the quantity of food consumed in the course of the first hour was then measured. The data in Table I indicate the percentage of inhibition of the food consumption of the animals treated with the compounds according to the present invention with respect to the controls.
The anorexiant activity by the oral route of a product according to the present invention, 4-amino-1-(6-chloro-2-pyridyl)piperidine in the form of mono hydrochloride (CM 57227, compound of Example 1), was tested in accordance with the food consumption method described hereinabove; as well known anorexiant product, fenfluramine, as well as 1-(6-chloro-2-pyridyl)piperazine in the form of monohydrochloride, described in U.S. Pat. No. 4,078,063, and 1-(6-chloro-2-pyrazinyl) piperazine in monohydrochloride form, described in British Pat. No. 1,492,528, were used as reference products.
the anorexiant activity, expressed as oral dose inhibiting by 50% the food consumption (ED50, data B);

[3] = Locomotor activity in the rat, oral (inhibition of spontaneous motility, photoelectric cell); conditions: for ED50 at 0.5 h / selectivity ratio: in vivo; for ED50 at 0.5 h: female rats, oral dose inhibiting spontaneous motility by 50%, pulses during 10 minutes, 30 minutes after treatment, read-out: C locom. act. inhibition ID50; for selectivity ratio: ratio locomotor ID50 / anorexiant ED50 (therapeutic index), read-out: C/B; for selectivity ratio / inhibition of locomotor activity (in words): oral; for inhibition of locomotor activity (in words): relative to anorexiant ED50
Protocol: The products were also assessed as a function of their action on the locomotor activity in the rat. To this end, female rats weighing about 200 g were used, to which the compounds were administered by the oral route. After 30 minutes, the treated animals were placed in a cage (80×80 cm) provided with a photoelectric cell for measuring the spontaneous movements, and the number of pulses transmitted to the cell for 10 minutes was recorded. The inhibition of the locomotor activity of each substance (6 to 10 animals per dose) was expressed as a percentage with respect to the controls.
the action on the locomotor activity, expressed as oral dose inhibiting by 50% the spontaneous motility, namely the number of pulses transmitted to the photoelectric cell during the 10 minutes (ID50, data C);

male mice = experiment: Acute toxicity, zone of mortality, mice, intraperitoneal; conditions: i.p., 48 h observation, doses with lowest (at least 1 death) and highest mortality
Protocol: With respect to their degree of activity, the 4-amino-1-(2-pyridyl)piperidines of the present invention are sparingly toxic and present a good therapeutic index. In Table I hereinbelow, the acute toxicity is expressed in the form of "zone of mortality". 6 batches of male mice weighing about 20 g were used, in which were injected the compounds of the present invention, dissolved or suspended in carboxymethylcellulose, by the intraperitoneal route, at at least four doses for each batch of animals. […] The "mortality zone" is represented by the doses at which the lowest mortality (at least 1 death) and the highest are observed.

[4] = Anorexiant activity, food consumption method in the rat, intraperitoneal; conditions: female rats, i.p., food consumed in first hour, vs controls
Protocol: as §2

cerebral serotonin = experiment: Cerebral levels of serotonin after intraperitoneal administration in the rat; conditions: for Cerebral levels of serotonin % with respect to controls: 60 minutes before sacrifice
Protocol: Table III below summarises the cerebral levels of serotonin after intraperitoneal administration in the rat of a compound according to the present invention, 4-amino-1-(6-chloro-2-pyridyl) piperidine in monohydrochloride form (CM 57227, product of Example 1). Fenfluramine was used as reference product.
The animals were treated 60 minutes before sacrifice.

rat = experiment: Acute toxicity, LD50 in the rat by the oral route
Excerpt: as §1

| Structure (SMILES) | LD50 [1] [mg/kg] | selectivity ratio [1] | ED50 ([2]; Rattus norvegicus, po) [mg/kg] | ED50 at 0.5 h [3] [mg/kg] | selectivity ratio [3] | inhibition of locomotor activity (in words) [3] | Mortality zone (male mice) [mg/kg] | other results |
| --- | --- | --- | --- | --- | --- | --- | --- | --- |
| Clc1cncc(N2CCNCC2)n1 [1-(6-chloro-2-pyrazinyl)piperazine HCl, 1-(6-chloro-2-pyrazinyl) piperazine] | 79.6 | 46.8 | 1.7 | 0.6 | 0.3 | inhibit the locomotor activity at doses even lower than the anorexiant ED50 | – | anorexiant activity (in words) ([2]; rat): very active as anorexiants |
| Clc1cccc(N2CCNCC2)n1 [1-(6-chloro-2-pyridyl)piperazine HCl, 1-(6-chloro-2-pyridyl)piperazine] | 174 | 48.3 | 3.6 | 2.1 | 0.58 | inhibit the locomotor activity at doses even lower than the anorexiant ED50 | – | anorexiant activity (in words) ([2]; rat): very active as anorexiants |
| NC1CCN(c2cccc(Cl)n2)CC1 [CM 57227, 4-amino-1-(6-chloro-2-pyridyl) piperidine] | 190 | 24.3 | – | 60 | 7.7 | – | 100 to 150 | Food consumption % inhibition ([4]; 10 mg/kg): 70.8%; ED50 ([2]; rat, oral dose inhibiting food consumption by 50%): 7.8 mg/kg; Cerebral levels of serotonin % with respect to controls (cerebral serotonin; 5 mg/kg i.p.): 105%; Cerebral levels of serotonin % with respect to controls (cerebral serotonin; 10 mg/kg i.p.): 120% |
| COc1cccc(N2CCC(N)CC2)n1 [CM 57366, 4-amino-1-(6-methoxy-2-pyridyl) piperidine] | – | – | – | – | – | – | 150 to 200 | Food consumption % inhibition ([4]; 30 mg/kg): 67.0% |
| NC1CCN(c2cccc(Sc3ccccc3)n2)CC1 [CM 57369, 4-amino-1-(6-phenylthio-2-pyridyl)piperidine] | – | – | – | – | – | – | 150 to 200 | Food consumption % inhibition ([4]; 40 mg/kg): 95.2% |
| Cc1cccc(N2CCC(N)CC2)n1 [CM 57371, 4-amino-1-(6-methyl-2-pyridyl)piperidine] | – | – | – | – | – | – | 175 to 225 | Food consumption % inhibition ([4]; 40 mg/kg): 77.2% |
| NC1CCN(c2cccc(Br)n2)CC1 [CM 57373, 4-amino-1-(6-bromo-2-pyridyl) piperidine] | – | – | – | – | – | – | 100 to 175 | Food consumption % inhibition ([4]; 20 mg/kg): 89.8% |
| NC1CCN(c2cccc(OCC(F)(F)F)n2)CC1 [CM 57385, 4-amino-1-[6-(2,2,2-trifluoro)ethoxy-2-pyridyl] piperidine] | – | – | – | – | – | – | 150 to 250 | Food consumption % inhibition ([4]; 30 mg/kg): 78.2% |
| CCNC(C)Cc1cccc(C(F)(F)F)c1 (centres unmarked) [fenfluramine] | – | 25.2 | 4 | 12 | 3 | much greater inhibiting action on the locomotor activity | – | A Acute toxicity LD50 (rat): 100.9 mg/kg; therapeutic index A/B, comparison (in words) (rat): almost equal to that of the 4-amino-1-(6-chloro-2-pyridyl)piperidine of the present invention; Cerebral levels of serotonin % with respect to controls (cerebral serotonin; 3.75 mg/kg i.p., * significant: p < 0.01): 69%; Cerebral levels of serotonin % with respect to controls (cerebral serotonin; 7.5 mg/kg i.p., * significant: p < 0.01): 51%; Cerebral levels of serotonin % with respect to controls (cerebral serotonin; 15 mg/kg i.p., * significant: p < 0.01): 42%; cerebral levels of serotonin (in words) (cerebral serotonin; i.p., anorexiant or equivalent doses): causes a significant reduction in cerebral serotonin |
